What is called IC50 is the midpoint of a concentration-inhibition curve.

The structures appear in SMILES notation. Some results are limits rather than exact numbers.

One assay has as its target T1, CETP (Homo sapiens, UniProt P11597).
T1 construct: made in house; host or cells: CHO cells (serum-free conditioned medium)
T1 sequence (P11597 18-493): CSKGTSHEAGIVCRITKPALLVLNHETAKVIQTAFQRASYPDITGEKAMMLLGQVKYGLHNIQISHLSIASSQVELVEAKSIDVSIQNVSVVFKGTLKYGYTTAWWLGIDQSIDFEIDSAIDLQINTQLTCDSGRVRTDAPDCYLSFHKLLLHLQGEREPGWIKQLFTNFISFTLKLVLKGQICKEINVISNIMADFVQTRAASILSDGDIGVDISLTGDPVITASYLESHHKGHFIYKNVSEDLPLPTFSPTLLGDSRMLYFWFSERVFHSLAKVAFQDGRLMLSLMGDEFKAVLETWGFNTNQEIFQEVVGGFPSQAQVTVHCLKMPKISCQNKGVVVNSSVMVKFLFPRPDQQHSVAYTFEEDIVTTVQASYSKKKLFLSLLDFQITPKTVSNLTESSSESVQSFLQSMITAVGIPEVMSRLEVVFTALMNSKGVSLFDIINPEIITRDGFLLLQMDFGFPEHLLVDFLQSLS
The assay is described as follows: CETP activity in vitro: transfer of [3H]CE from HDL donor to LDL acceptor particles. It counts as biochemical. To be noted: 50% inhibition of [3H]CE transfer from HDL to LDL, 2 hours at 37° C.; read-out: IC50(μm). On the procedure:
The ability of compounds to inhibit CETP were assessed using an in vitro assay that measured the rate of transfer of radiolabeled cholesteryl ester ([^3H]CE) from HDL donor particles to LDL acceptor particles. Details of the assay are provided by Glenn et al. (“Quantification of Cholesteryl Ester Transfer Protein (CETP): A) CETP Activity and B) Immunochemical Assay of CETP Protein,” Meth. Enzymol., Glenn and Melton (Meth. Enzymol., 263, 339-351 (1996), which is incorporated herein by reference). CETP was obtained from the serum-free conditioned medium of CHO cells transfected with a cDNA for CETP (Wang, S. et al. J. Biol Chem. 267, 17487-17490 (1992), which is incorporated herein by reference).
To measure CETP activity, [^3H]CE-labeled HDL, LDL, CETP and assay buffer (50 mM tris(hydroxymethyl)amino-methane, pH 7.4; 150 mM sodium chloride; 2 mM ethylenediamine-tetraacetic acid; 1% bovine serum albumin) were incubated in a volume of 200 μl, for 2 hours at 37° C. in 96 well plates. LDL was differentially precipitated by the addition of 50 μl of 1% (w/v) dextran sulfate/0.5 M magnesium chloride, mixed by vortex, and incubated at room temperature for 10 minutes The solution (200μl) was transferred to a filter plate (Millipore). After filtration, the radioactivity present in the precipitated LDL was measured by liquid scintillation counting.
This value was defined as the IC50.
As to `CCOC(=O)c1c(C(F)F)nc(C(F)(F)F)c(C(=O)OCC)c1SC1CCCC1` [Compound 22, Diethyl 2-(Difluoromethyl)-4-(cyclopentylthio)-6-(trifluoromethyl)-3,5-pyridinedicarboxylate], the IC50 was 40 µM.

Turning to `COC(=O)c1c(OCc2ccccc2)cc(C(F)(F)F)nc1C(F)(F)F` [Compound 37, Methyl 2,6-bis(Trifluoromethyl)-4-(benzyloxy)-3-pyridinecarboxylate], the IC50 was determined as 45 µM.

In the case of `CCOP(=O)(OCC)C(=O)c1c(C(F)(F)F)nc(C(F)F)c(C(=O)OC)c1NC(C)C` [Compound 85, Methyl 5-[(Diethoxyphosphinyl)carbonyl]-2-(difluoromethyl)-4-(1-methylethylamino)-6-(trifluoromethyl)-3-pyridinecarboxylate], the IC50 was determined as 90 µM.

As for `COC(=O)c1c(C(F)F)nc(C(F)(F)F)c(CCl)c1CC(C)C` [Compound 83, Methyl 5-Chloromethyl-2-(difluoromethyl)-4-(2-methylpropyl)-6-(trifluoromethyl)-3-pyridinecarboxylate], the IC50 worked out at 80 µM.

In the case of `COC(=O)c1c(C(F)F)nc(C(F)(F)F)c(CSC(=O)N(C)C)c1CC(C)C` [Compound 79], the IC50 amounted to 75 µM.

The assay is the same for the next values; noted with them: 2 h, read-out: % Transfer @ 100 μm.
On to `COC(=O)c1c(C(F)F)nc(C(F)(F)F)c([S+]([O-])CCCl)c1CC(C)C` (centres unmarked) [Compound 111, Methyl 5-(Chloroethylsulfinyl)-2-(difluoromethyl)-4-(2-methylpropyl)-6-(trifluoromethyl)-3-pyridinecarboxylate], for which the remaining activity at 100 µM came to 78%.

The same assay, now with this note: 2 h; read-out: % Transfer @ 100 μm.
Turning to `CCOC(=O)c1cnc(C(F)(F)F)c(OCC)c1O` [Compound 114, Ethyl 5-Ethoxy-4-Hydroxy-6-(trifluoromethyl)-3-pyridinecarboxylate], the remaining activity at 100 µM turned out to be 81%.

On to `COC(=O)c1c(C(F)F)nc(C(F)(F)F)c(C(=N)SC)c1CC1CC1` [Compound 112, Methyl 4-(Cyclopropylmethyl)-2-(difluoromethyl)-5-[imino(methylthio)methyl]-6-(trifluoromethyl)-3-pyridinecarboxylate], for which the remaining activity at 100 µM was 78%.

For the compound `COC(=O)c1c(C(F)F)nc(C(F)(F)F)c(-c2ncco2)c1CC(C)C` [Compound 110, Methyl 2-(difluoromethyl)-4-(2-methylpropyl)-5-(2-oxazolyl)-6-(trifluoromethyl)-3-pyridinecarboxylate], the remaining activity at 100 µM was 76%.

The assay is the same for the next values; noted with them: @ 100 μm; footnotes A and B of Table 6.
`COC(=O)c1c(C(F)F)nc(C(F)(F)F)c(CSc2nccn2C)c1CC(C)C` [Compound 188, Methyl 5-[(1-Methylimidazol-2-yl)thiomethyl]-2-(difluoromethyl)-4-(2-methylpropyl)-6-(trifluoromethyl)-3-pyridinecarboxylate]: the CE transferred result is “^A90% CE transferred @ 100 μm”.

The assay is the same for the next values; noted with them: IC50(μm), 50% inhibition of [3H]CE transfer from HDL to LDL, 2 hours at 37° C.
In the case of `COC(=O)c1c(C(F)F)nc(C(F)(F)F)c(C#C[Si](C)(C)C)c1CC(C)C` [Compound 19, Methyl 2-(Difluoromethyl)-4-(2-methylpropyl)-6-(trifluoromethyl)-5-[(trimethylsilyl)ethynyl]-3-pyridinedicarboxylate], the IC50 stood at 35 µM.

In turn, `CCCc1c(C(=O)OC)c(C(F)F)nc(C(F)(F)F)c1C(=O)SCC` [Compound 62] came in with a half-inhibitory concentration (IC50) of 60 µM.

For the compound `COC(=O)c1c(C(F)F)nc(C(F)(F)F)c(N=COCC2CO2)c1CC(C)C` (centres unmarked) [Compound 30], it took 40 µM to reach half-maximal inhibition (IC50).

The compound `CCOC(=O)c1c(C(F)(F)F)nc(C(F)(F)F)c(C(=O)OCC)c1CC(C)C` [Compound 36, Diethyl 2,6-Bis(trifluoromethyl)-4-(2-methylpropyl)-3,5-pyridinedicarboxylate] showed an IC50 of 45 µM.

Consider `COC(=O)c1c(C(F)F)nc(C(F)(F)F)c(C(=O)Sc2ccccc2C(C)C)c1CC(C)C` [Compound 157, Methyl 2-(Difluoromethyl)-4-(2-methylpropyl)-5-{[(2-isopropylphenyl)thio]carbonyl}-6-(trifluoromethyl)-3-pyridinecarboxylate], for which the half-inhibitory concentration (IC50) was 60 µM.

Still in this assay, the particulars now being: IC50, Table 6, compounds of formula T-6.
Take `COC(=O)c1c(C(F)F)nc(C(F)(F)F)c(CSc2nccn2C)c1CC(C)C` [Compound 188, Methyl 5-[(1-Methylimidazol-2-yl)thiomethyl]-2-(difluoromethyl)-4-(2-methylpropyl)-6-(trifluoromethyl)-3-pyridinecarboxylate]: the IC50 is more than 100 µM.

Consider `COC(=O)c1c(C(F)F)nc(C(F)(F)F)c(CSc2ccc(OC(F)(F)F)cc2)c1CC(C)C` [Compound 191], for which half-maximal inhibition (IC50) was put at 10 µM.

Turning to `COC(=O)c1c(C(F)F)nc(C(F)(F)F)c(CSc2ccc([N+](=O)[O-])cc2)c1CC(C)C` [Compound 198, Methyl 5-[(4-Nitrophenyl)thiomethyl]-2-(difluoromethyl)-4-(2-methylpropyl)-6-(trifluoromethyl)-3-pyridinecarboxylate], 7 µM corresponded to half-maximal inhibition (IC50).

Staying with this assay, now noted: Table 6, compounds of formula T-6; read-out: IC50.
For the compound `COC(=O)c1c(C(F)F)nc(C(F)(F)F)c(CSc2cc(Cl)ccc2Cl)c1CC(C)C` [Compound 195, Methyl 5-[(2,5-Dichlorophenyl)thiomethyl]-2-(difluoromethyl)-4-(2-methylpropyl)-6-(trifluoromethyl)-3-pyridinecarboxylate], the half-maximal inhibitory concentration (IC50) stood at 50 µM.

Regarding `COC(=O)c1c(C(F)F)nc(C(F)(F)F)c(CSc2ncccn2)c1CC(C)C` [Compound 203, Methyl 5-[(Pyrimidin-2-yl)thiomethyl]-2-(difluoromethyl)-4-(2-methylpropyl)-6-(trifluoromethyl)-3-pyridinecarboxylate], the IC50 came out at 70 µM.

Consider `COC(=O)c1c(C(F)F)nc(C(F)(F)F)c(CSc2ccc(Br)cc2)c1CC(C)C` [Compound 193, Methyl 5-[(4-Bromophenyl)thiomethyl]-2-(difluoromethyl)-4-(2-methylpropyl)-6-(trifluoromethyl) -3-pyridinecarboxylate], for which the IC50 was 20 µM.

For the compound `COC(=O)c1c(C(F)F)nc(C(F)(F)F)c(CSc2cccc(Cl)c2)c1CC(C)C` [Compound 213, Methyl 5-[(3-Chlorophenyl)thiomethyl]-2-(difluoromethyl)-4-(2-methylpropyl)-6-(trifluoromethyl)-3-pyridinecarboxylate], the IC50 amounted to 15 µM.

The same assay, now with this note: Table 7, compounds of formula T-7; read-out: IC50.
On to `COC(=O)c1c(C(F)F)nc(C(F)(F)F)c(SCc2ccc(OC(F)(F)F)cc2)c1CC(C)C` [Compound 235], for which the IC50 was 30 µM.

Regarding `COC(=O)c1c(C(F)F)nc(C(F)(F)F)c(SCc2ccc(OC)cc2)c1CC(C)C` [Compound 221], the IC50 was 40 µM.

As for `COC(=O)c1c(C(F)F)nc(C(F)(F)F)c(SCc2ccc3ccccc3n2)c1CC(C)C` [Compound 241, Methyl 5-[(2-quinolinyl)methylthio]-2-(difluoromethyl)-4-(2-methylpropyl)-6-(trifluoromethyl)-3-pyridinecarboxylate], the IC50 stood at 50 µM.

The same assay, now with this note: Table 8; read-out: IC50.
Take `Fc1ccc(-c2c(COCc3ccccc3)c(C(F)(F)F)nc(C(F)F)c2C(F)c2ccc(C(F)(F)F)cc2)cc1` (centres unmarked) [Compound 248]: the IC50 came out at 77 µM.

Regarding `CCOC(=O)c1c(C(F)(F)F)nc(C(F)F)c(CN2CCCC2)c1-c1ccc(F)cc1` [Compound 294], the IC50 amounted to 40 µM.

For `CC(C)c1ccc(Cc2c(C(F)F)nc(C(F)(F)F)c(C=O)c2-c2ccccc2)cc1` [Compound 274], the IC50 worked out at 8 µM.

Turning to `O=C(c1ccc2ccccc2c1)c1c(C(F)(F)F)nc(C(F)F)c(CO)c1-c1ccccc1` [Compound 259], the 50% inhibitory concentration (IC50) came to 60 µM.

`O=Cc1c(C(F)F)nc(C(F)(F)F)c(C(=O)c2ccc3ccccc3c2)c1-c1ccccc1` [Compound 286]: the IC50 turned out to be 11.7 µM.

For `OCc1c(C(F)F)nc(C(F)(F)F)c(C(O)c2ccc3ccccc3c2)c1-c1ccccc1` (centres unmarked) [Compound 270], the IC50 was more than 100 µM.

For the compound `CCOC(=O)c1c(C(F)(F)F)nc(C(F)F)c(C(F)c2ccc(Cl)cc2)c1-c1ccc(F)cc1` (centres unmarked) [Compound 250], the IC50 was 40 µM.

The record behind these values is patent US6794396B2, “Substituted pyridines useful for inhibiting cholesteryl ester transfer protein activity” (Pharmacia Corporation, priority 1998, dated 2004).
